From ChEMBL document CHEMBL4811216, “Chemotherapy for human schistosomiasis: how far have we come? What's new? Where do we go from here?” (RSC Med Chem, 2020) come the findings set out here.

In assay [1] the test system is Schistosoma mansoni. The experiment in a line: Antischistosomal activity against Schistosoma mansoni Puerto Rican schistosomula assessed as effect on worm phenotype measured after 72 hrs. The format is functional, organism-based.
Assay [2] has as its system Schistosoma mansoni. The experiment in a line: Antischistosomal activity against Schistosoma mansoni Puerto Rican schistosomula assessed as effect on worm motility measured after 72 hrs. It is filed as functional, organism-based.
Assay [3] relates to Schistosoma mansoni. The experiment in a line: Antischistosomal activity against adult Schistosoma mansoni Puerto Rican incubated for 72 hrs by microscopic method. It is filed as functional, organism-based.
Assay [4] concerns Schistosoma mansoni. The experiment in a line: Antischistosomal activity against juvenile Schistosoma mansoni Puerto Rican incubated for 72 hrs by microscopic method. It is filed as functional, organism-based.
Assay [5] deals with Schistosoma mansoni. The experiment in a line: Antischistosomal activity against Schistosoma mansoni LE assessed as worm mortality at 200 uM measured after 24 hrs relative to control. The format is functional.
Assay [6] has as its system Schistosoma mansoni. The experiment in a line: Antischistosomal activity against Schistosoma mansoni LE assessed as reduction in worm motor activity at 100 uM measured after 72 hrs relative to control. The format is functional. The arrangement: scale not given: the % may be the effect or the level left.
The test system of assay [7] is Schistosoma mansoni. The assay is described as follows: Antischistosomal activity against Schistosoma mansoni assessed as worm death at <= 100 uM measured within 72 hrs relative to control. It is filed as functional. Particulars: dose microM <=100.
Assay [8] deals with Schistosoma mansoni. The experiment in a line: Antischistosomal activity against Schistosoma mansoni assessed as tegument damage at <=100 uM measured within 72 hrs relative to control. The format is functional. Particulars: dose microM <=100.
The subject of assay [9] is Schistosoma mansoni. The assay is described as follows: Antischistosomal activity against Schistosoma mansoni assessed as reduction in worm motor activity at <=100 uM measured within 72 hrs relative to control. Also noted: scale not given: the % may be the effect or the level left. It is filed as functional. Particulars: dose microM <=100.
For assay [10], the system named is Schistosoma mansoni. The assay is described as follows: Antischistosomal activity against Schistosoma mansoni incubated for 24 hrs by MTT assay. It is filed as functional, organism-based. On the technique in general: Formazan colour is commonly taken as a measure of viable cells.
For assay [11], the system named is Schistosoma mansoni. The assay is described as follows: Antischistosomal activity against Schistosoma mansoni BH infected in Swiss Webster mouse assessed as worm burden reduction at 100 mg/kg, po administered for 5 consecutive days and measured 15 days post-treatment (reference value: 19.8%). The format is functional. The arrangement: scale not given: the % may be the effect or the level left. The conditions noted are these: time 15 day.

Assay [12] relates to Schistosoma mansoni. The assay is described as follows: Antischistosomal activity against Schistosoma mansoni at 50 uM measured after 120 hrs relative to control. The format is functional.
In assay [13] the test system is Schistosoma mansoni. The experiment in a line: Schistosomicidal-activity against Schistosoma mansoni LE assessed as reduction in motor activity at 50 uM measured after 120 hrs relative to control. It is filed as functional. Also noted: scale not given: the % may be the effect or the level left.
In assay [14] the test system is Schistosoma mansoni. The assay is described as follows: Schistosomicidal-activity against Schistosoma mansoni LE assessed as seperation of worm couples at 25 uM measured within 120 hrs relative to control. The format is functional.
Assay [15] deals with Schistosoma mansoni. The experiment in a line: Antischistosomal activity against Schistosoma mansoni NRMI schistosomula incubated for 24 hrs. It is filed as functional.

Usually IC50 stands for the concentration needed to halve the response being measured. Consider `CC1(C)CCC[C@]2(C)C(CC[C@@](C)(O)/C=C/c3ccc(F)cc3)[C@](C)(O)CC[C@@H]12` (stereo not given in full), for which the half-inhibitory concentration (IC50) is below 2000 nM in assay [1], below 2000 nM in assay [2], 9.4 µM in [3] and below 2000 nM in [4].
`COC(=O)/C=C/c1ccc2c(c1)[C@@H](C(=O)OC)[C@H](c1ccc(OC(C)=O)cc1)O2`: the Activity in [5] and in [6] was 100% each time.
What is called mortality is the percentage killed. As for `C/C=C/c1cc(OC)c2c(c1)C(C)C(c1ccc(O)c(OC)c1)O2` (stereo not given) [DEHRODIISOEUGENOL], the mortality in [7] is listed as 100%. Besides, the values for the Activity in assay [8] and in assay [9] were 25% and 100%, respectively. The molecule further had an IC50 in assay [10] of 53.5 µM.
In the case of `CN(Nc1ccc(Cl)cc1)C1NC(=O)N(Cc2ccccc2)C1=S` (stereo not given), the Activity in assay [11] is reported as 70.5%; in [12], 100%.
With `COc1cc([C@@H]2OC(=O)[C@@H]3[C@H]2C(=O)O[C@H]3c2ccc(O)c(OC)c2)ccc1O`, the Activity in assay [13] and in assay [14] was 25% each time.
Usually LC50 stands for the concentration lethal to half of the exposed cells or organisms. In assay [15], `CC(C)c1cc2c(cc1O)C(=O)C[C@H]1C(C)(C)CCC[C@]21C` gave an LC50 of 19.1 µM.
